Tests used:
[1] = target: T1, human ALK2 R206H (Homo sapiens, UniProt Q04771, R206H); assay: Cell-based ALK2-R206H cell activity assay (Smad1-Ser463/Ser465 phosphorylation by AlphaLISA in HEK293-ALK2-R206H cells); conditions: read-out: Cell Line (Cell Assay IC50)
T1 construct: expressed in transfected cells; host or cells: HEK293 (ATCC CRL1573), lentivirus transduction, blasticidin selection
T1 sequence (Q04771 21-509 R206H): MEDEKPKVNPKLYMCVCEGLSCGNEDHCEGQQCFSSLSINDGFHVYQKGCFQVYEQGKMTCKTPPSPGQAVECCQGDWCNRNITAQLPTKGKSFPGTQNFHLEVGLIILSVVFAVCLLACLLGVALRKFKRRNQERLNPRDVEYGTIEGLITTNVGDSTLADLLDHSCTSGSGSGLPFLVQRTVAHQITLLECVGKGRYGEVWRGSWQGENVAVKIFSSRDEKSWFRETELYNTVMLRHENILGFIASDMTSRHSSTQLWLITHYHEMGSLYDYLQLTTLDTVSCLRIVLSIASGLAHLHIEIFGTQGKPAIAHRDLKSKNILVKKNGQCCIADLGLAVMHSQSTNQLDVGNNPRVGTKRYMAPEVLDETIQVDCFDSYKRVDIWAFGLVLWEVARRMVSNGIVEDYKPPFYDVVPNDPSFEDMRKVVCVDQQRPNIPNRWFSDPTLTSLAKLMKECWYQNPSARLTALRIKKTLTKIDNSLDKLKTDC
Summary of the method: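 Stable HEK293 cells expressing C-terminally FLAG-tagged human ALK2 R206H (lentiviral, blasticidin-selected) were treated with compounds in 10-point, 3-fold dilutions from 10 μM or 1 μM top, in duplicate. Smad1 Ser463/Ser465 phosphorylation was read by AlphaLISA.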

[2] = target: T2, ALK2 R206H (GST-tagged mutant ALK2) (Homo sapiens, UniProt Q04771, R206H); assay: ALK binding assay (LANTHASCREEN TR-FRET competitive binding, displacement of Kinase Tracer 178); conditions: ALK2 R206H, LANTHASCREEN TR-FRET competitive binding; read-out: Binding Assay (IC50)
T2 construct: purchased Carna Bioscience or ThermoFisher 09-148 or PV6232
T2 sequence (Q04771 21-509 R206H): T1 sequence (Q04771 21-509 R206H)

Row | SMILES | IC50 [1] | IC50 [2]
1 | O=C(C1CC1)N1CCN(c2ccnn3cc(-c4ccc(N5CCNCC5)cc4OC(F)F)cc23)CC1 [Compound 363] | 0.1 to 0.5 µM | < 0.01 µM
2 | CC(C)N1CC[C@@H](c2ccc(-c3cc4c(N5CCN(C(=O)[C@H]6C[C@H](C#N)C6)CC5)ccnn4c3)cc2)C1 [Compound 364] | < 0.1 µM | < 0.01 µM
3 | CC(C)N1CCC(c2ccc(-c3cc4c(N5CCN(C(=O)[C@H]6C[C@@H]6C#N)CC5)ccnn4c3)cc2)CC1 [Compound 365] | < 0.1 µM | < 0.01 µM
4 | CC(C)N1CC[C@H](c2ccc(-c3cc4c(N5CCN(C(=O)[C@H]6C[C@H](C#N)C6)CC5)ccnn4c3)cc2)C1 [Compound 366] | < 0.1 µM | < 0.01 µM
5 | CCN1CCN(c2ccc(-c3cc4c(N5CCN(C(=O)C6CC(C#N)C6)CC5)ccnn4c3)cc2)CC1 (stereo not drawn) [Compound 367] | < 0.1 µM | < 0.01 µM
6 | CC(C)N1CC[C@H](c2ccc(-c3cc4c(N5CCN(C(=O)N6CC(C#N)C6)CC5)ccnn4c3)cc2)C1 [Compound 368] | < 0.1 µM | < 0.01 µM
7 | CC(C)N1CC[C@@H](c2ccc(-c3cc4c(N5CCN(C(=O)N6CC(C#N)C6)CC5)ccnn4c3)cc2)C1 [Compound 369] | < 0.1 µM | < 0.01 µM
8 | CCN1CCC(c2ccc(-c3cc4c(N5CCN(C(=O)N6CC(C#N)C6)CC5)ccnn4c3)cc2)CC1 [Compound 370] | < 0.1 µM | < 0.01 µM
9 | N#C[C@H]1CC[C@H](C(=O)N2CCN(c3ccnn4cc(-c5ccc(N6CCNCC6)cc5)cc34)CC2)CC1 [Compound 371] | < 0.1 µM | < 0.01 µM
10 | O=C(C1CC1)N1CCN(c2ccnn3cc(-c4ccc(N5CCNC(C(F)(F)F)C5)cc4)cc23)CC1 (stereo not drawn) [Compound 373] | > 0.5 µM | 0.01 to 0.05 µM
11 | N#C[C@H]1CC[C@H](C(=O)N2CCN(c3ccnn4cc(-c5ccc(C6CNCCO6)cc5)cc34)CC2)CC1 (stereo partly drawn) [Compound 375] | < 0.1 µM | < 0.01 µM
12 | CCN1CCN(c2ccc(-c3cc4c(N5CCN(C(=O)N6CC(C#N)C6)CC5)ccnn4c3)cc2)CC1 [Compound 376] | < 0.1 µM | < 0.01 µM
13 | CC(C)N1CCC(c2ccc(-c3cc4c(N5CCN(C(=O)NCCC#N)CC5)ccnn4c3)cc2)CC1 [Compound 377] | 0.1 to 0.5 µM | < 0.01 µM
14 | CCN1CCC(c2ccc(-c3cc4c(N5CCN(C(=O)N6CCCCC6)CC5)ccnn4c3)cc2)CC1 [Compound 379] | 0.1 to 0.5 µM | < 0.01 µM
15 | CC(C)N1CCC(c2ccc(-c3cc4c(N5CCN(C(=O)NC6CCC6)CC5)ccnn4c3)cc2)CC1 [Compound 380] | < 0.1 µM | < 0.01 µM
16 | CC(C)N1CCCC(c2ccc(-c3cc4c(N5CCN(C(=O)[C@H]6C[C@H](O)C6)CC5)ccnn4c3)cc2)C1 (stereo partly drawn) [Compound 381] | < 0.1 µM | < 0.01 µM
17 | CCN1CCC(c2ccc(-c3cc4c(N5CCN(C(=O)[C@H]6C[C@H](O)C6)[C@H](C)C5)ccnn4c3)cc2)CC1 [Compound 382] | < 0.1 µM | < 0.01 µM

Second part, the compound after the results:

Row | IC50 [1] | IC50 [2] | SMILES
18 | < 0.1 µM | < 0.01 µM | CCN1CCC(c2ccc(-c3cc4c(N5CCN(C(=O)C6CC(C)(O)C6)CC5)ccnn4c3)cc2)CC1 (stereo not drawn) [Compound 383]
19 | < 0.1 µM | < 0.01 µM | CCN1CCC(c2ccc(-c3cc4c(N5CCN(C(=O)[C@H]6C[C@](C)(O)C6)CC5)ccnn4c3)cc2)CC1 [Compound 384]
20 | < 0.1 µM | < 0.01 µM | CC(C)N1CCC[C@@H](c2ccc(-c3cc4c(N5CCN(C(=O)[C@H]6C[C@H](O)C6)CC5)ccnn4c3)cc2)C1 [Compound 385]
21 | 0.1 to 0.5 µM | < 0.01 µM | CC(C)N1CCC(c2ccc(-c3cc4c(N5CCN(C(=O)OCC6CC6)CC5)ccnn4c3)cc2)CC1 [Compound 386]
22 | < 0.1 µM | < 0.01 µM | CC(C)N1CCC[C@H](c2ccc(-c3cc4c(N5CCN(C(=O)[C@H]6C[C@H](O)C6)CC5)ccnn4c3)cc2)C1 [Compound 387]
23 | < 0.1 µM | < 0.01 µM | COC1(c2ccc(-c3cc4c(N5CCN(C(=O)C6CC6)CC5)ccnn4c3)cc2)CCCN(C(C)C)C1 (stereo not drawn) [Compound 388]
24 | 0.1 to 0.5 µM | 0.01 to 0.05 µM | CCN1CCN(CCOc2ccc(-c3cc4c(N5CCN(C(=O)C6CC6)CC5)ccnn4c3)cc2)CC1 [Compound 390, cyclopropyl(4-(6-(4-(2-(4-ethylpiperazin-1-yl)ethoxy)phenyl)pyrrolo[1,2-b]pyridazin-4-yl)piperazin-1-yl)methanone]
